Entries after “also recorded” stand apart in the source; their conditions may differ. Read-outs that look alike come from different tables or passages of the source.
Experiments:
[1] = molecular target: T1, human cloned 5-HT6 receptors (Homo sapiens, UniProt P50406); test: 5-HT6 binding affinity, [3H]-LSD displacement on membranes of Hela cells
T1 construct: expressed in transfected cells; host or cells: Hela cells (membrane preparation)
Procedure: The affinity of test compounds for the serotonin 5-HT6 receptor is evaluated in the following manner. Cultured Hela cells expressing human cloned 5-HT6 receptors are harvested and centrifuged at low speed (1,000×g) for 10.0 min to remove the culture media. The harvested cells are suspended in half volume of fresh physiological phosphate buffered saline solution and recentrifuged at the same speed. This operation is repeated. The collected cells are then homogenized in ten volumes of 50 mM Tris.HCl (pH 7.4) and 0.5 mM EDTA. The homogenate is centrifuged at 40,000×g for 30.0 min and the precipitate is collected. The obtained pellet is resuspended in 10 volumes of Tris.HCl buffer and recentrifuged at the same speed. The final pellet is suspended in a small volume of Tris.HCl buffer and the tissue protein content is determined in aliquots of 10-25 μl volumes. […] The volume of the suspended cell membranes is adjusted to give a tissue protein concentration of 1.0 mg/ml of suspension. The prepared membrane suspension (10 times concentrated) is aliquoted in 1.0 ml volumes and stored at −70° C. until used in subsequent binding experiments.
Binding experiments are performed in a 96 well microtiter plate format, in a total volume of 200 μl. […] The test compounds are added in 20.0 μl volume.
The bound complex caught on the filter disk is allowed to air dry and the radioactivity is measured in a Packard TopCount® equipped with six photomultiplier detectors, after the addition of 40.0 μl Microscint®-20 scintillant to each shallow well.
Binding in the presence of varying concentrations of test compound is expressed as a percentage of specific binding in the absence of test compound. The results are plotted as log % bound versus log concentration of test compound. […] A linear regression line of data points is plotted, from which the IC50 value is determined and the Ki value is determined based upon the following equation: […]
where L is the concentration of the radioactive ligand used and KD is the dissociation constant of the ligand for the receptor, both expressed in nM.

[2] = molecular target: T2, human 5-HT6 receptor stabily transfected into HELA cells (Homo sapiens, UniProt P50406); test: 5-HT6 antagonist activity using cAMP accumulation; type: cell-based; details: decrease of cAMP relative to serotonin (100 nM); 100% Imax indicates 0% intrinsic activity
T2 construct: expressed in transfected cells; host or cells: HELA cells, stably transfected
T2 sequence (P50406 whole entry): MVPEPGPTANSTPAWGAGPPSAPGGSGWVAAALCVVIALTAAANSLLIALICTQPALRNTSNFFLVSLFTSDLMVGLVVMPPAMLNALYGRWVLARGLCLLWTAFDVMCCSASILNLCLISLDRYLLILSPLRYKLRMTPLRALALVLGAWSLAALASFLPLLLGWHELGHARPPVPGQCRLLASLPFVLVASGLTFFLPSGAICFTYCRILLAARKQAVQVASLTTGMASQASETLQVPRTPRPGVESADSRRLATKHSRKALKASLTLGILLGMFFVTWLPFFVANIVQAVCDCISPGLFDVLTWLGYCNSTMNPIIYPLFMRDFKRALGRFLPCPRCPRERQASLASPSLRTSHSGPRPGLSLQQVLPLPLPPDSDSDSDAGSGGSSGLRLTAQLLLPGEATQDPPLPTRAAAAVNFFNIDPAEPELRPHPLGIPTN
Procedure: Intracellular cAMP levels are measured using 96-well plates containing the human 5-HT6 receptor stabily transfected into HELA cells. Upon initiation of the assay, the media from cell maintenance is aspirated and cells are preincubated at 37° C. for 15 mins. in KREBS buffer. Following this primary incubation, the buffer is aspirated and an additional incubation is performed at 37° C. for 5 mins. in KREBS buffer containing 500 uM IBMX (3-isobutyl-1-methylxanthine). Subsequently cells are incubated with test compound concentrations ranging from 10^-5 to 10^-10M for 10 minutes at 37° C. Serotonin (100 nM) is added to the treated cells and incubated for an additional 10 minutes at 37° C. The assay is terminated by the addition of 0.5M perchloric acid. Intracellular CAMP levels are determined by radioimmunoassay through the cAMP SPA screening kit. Data are analyzed graphically with GraphPad Prism (GraphPad Software, San Diego, Calif.). […] The value is recorded as Imax (%) and shown on Table I. (100% Imax indicates 0% intrinsic activity.)

[3] = tested on: recognition memory; type: in vivo; details: 48-hour interval
Excerpt: In this evaluation, donepezil (Aricept) is used as the acetylcholinesterase inhibitor component and 3-(1-naphthylsulfonyl)-5-piperazin-1-yl-1H-indazole (Test Compound A) is used as the 5-HT6 component. Novel object recognition is a single trial non-aversive learning paradigm that utilizes the rodent's natural tendency to explore an unfamiliar object more than a familiar one. The learning phase of the paradigm consists of recording the amount of time a rat explores two identical objects it has never seen before during a 5-minute period. Following a 48-hour interval, during which the animal is returned to its homecage, the animal is placed back into the same environment now containing one of the original objects (familiar) and one never experienced before (novel). Recognition memory is reflected as an increase in time spent exploring the novel object relative to that spent exploring the familiar one. The amount of time each animal spends exploring the two objects during the memory trial is analyzed using a repeated-measures ANOVA. […] All treatments were administered prior to the first trial either orally (Test Compound A) or i.p. (Aricept).

[4] = tested on: acetylcholine release in dorsal hippocampus; test: Acetylcholine release in rat dorsal hippocampus, microdialysis; type: in vivo, Sprague Dawley rats; details: rat dorsal hippocampus dialysate
Excerpt: Male Sprague Dawley rats were anesthetized with halothane and secured in a stereotaxic frame to allow implantation of a microdialysis guide cannula above the dorsal hippocampus (coordinatesXXX; Paxinos & Watson 1986). The guide cannula was secured using dental acrylic and two small skull screws. Following surgery, animals were individually housed in microdialysis cages with free access to food and water. The following day a microdialysis probe was inserted via the guide cannula into the hippocampus. Probes were perfused with artificial cerebrospinal fluid at a flow rate of 0.5 μl/min. Dialysates were collected every 40 min and were put on dry ice immediately after collection for subsequent analysis. A 3 h stabilization period was allowed following probe insertion after which time baseline samples were collected for 120 min. Rats were then dosed with Aricept (0.5 mg/kg i.p.) or vehicle (saline, 1 ml/kg i.p.). […] Following dosing, dialysis samples were collected for 200 min. At the end of the experiment, animals were euthanized and probe placement was verified histologically. Data from animals with incorrect probe placement were discarded. Dialysates were analyzed for ACh content using LC/MS/MS.

[5] = 5-HT6 antagonist 1 mg/kg po alone

T1 sequence (P50406 whole entry): as above

With NCCOc1cccc2c(S(=O)(=O)c3cccc4ccccc34)n[nH]c12 [Test Compound C, (2-{[3-(1-naphthylsulfonyl)-1H-indazol-7-yl]oxy}ethyl)amine] the Ki [1] was 1.9 nM and the “% Imax” value [2] was 100%.
O=S(=O)(c1ccccc1)n1ncc2c(N3CCNCC3)cccc21 [Test Compound D, 1-(phenylsulfonyl)-4-(1-piperazinyl)-1H-indazole] was tested, and the Ki [1] was 0.6 nM and the “% Imax” value [2] was 100%.
COc1cc2c(cc1OC)C(=O)C(CC1CCN(Cc3ccccc3)CC1)C2 (centres unmarked) [Aricept, donepezil] was tested, and the “retention for the familiar objects (novel object recognition)” value (shortened to “retention for the familiar objects”) ([3]; Aricept 0.5 mg/kg ip alone) was “neither Aricept (0.5 mg/kg, ip) nor Test Compound A (1 mg/kg, po) alone enhanced retention; also recorded: produced no enhancement of recognition memory; also recorded: neither Aricept (0.5 mg/kg, ip) alone nor Test Compound B (1 mg/kg, po) alone enhanced retention”, the “retention for the familiar objects” value ([3]; Aricept alone) was “enhanced retention for the familiar objects” and the “increase in acetylcholine concentration (change from baseline)” value ([4]; Aricept 0.5 mg/kg i.p. alone) was 50%.
With CN(C)CCCOc1ccc2[nH]nc(S(=O)(=O)c3cccc4ccccc34)c2c1 [Test Compound B, N,N-dimethyl-3-{[3-(1-naphthylsulfonyl)-1H-indazol-5-yl]oxy}propan-1-amine] the “retention for the familiar objects” value [3, 5] was “neither Aricept (0.5 mg/kg, ip) alone nor Test Compound B (1 mg/kg, po) alone enhanced retention; also recorded: neither Razadyne (0.1 mg/kg, ip) alone nor Test Compound B (1 mg/kg, po) alone enhanced retention” and the “effect on acetylcholine concentration (change from baseline)” value ([4]; Test Compound B 1 mg/kg p.o. alone) was “did not affect acetylcholine”.
For COc1ccc2c3c1O[C@H]1C[C@@H](O)C=C[C@@]31CCN(C)C2 [Razadyne, galanthamine], the “retention for the familiar objects” value ([3]; Razadyne 0. alone) was “neither Razadyne (0.1 mg/kg, ip) alone nor Test Compound B (1 mg/kg, po) alone enhanced retention”.
O=S(=O)(c1cccc2ccccc12)c1n[nH]c2ccc(N3CCNCC3)cc12 [Test Compound A, 3-(1-naphthylsulfonyl)-5-piperazin-1-yl-1H-indazole] was tested, and the “retention for the familiar objects” value [3, 5] was “neither Aricept (0.5 mg/kg, ip) nor Test Compound A (1 mg/kg, po) alone enhanced retention”, the “retention for the familiar objects” value ([3]; 5-HT6 antagonist 3 mg/kg po alone) was “enhanced retention for the familiar objects” and the Ki [1] was 1.1 nM. For the same compound, the “% Imax” value [2] was 100%.
